In patent US20220177587A1, “METHODS AND USES OF VARIANT CD80 FUSION PROTEINS AND RELATED CONSTRUCTS” (Alpine Immune Sciences, Inc., priority 2018, published 2022):

Tests used:
Pan T cells = assay: Primary T cell stimulation assay with K562/OKT3 +/- PD-L1 (IL-2, IFN-gamma, proliferation); assay type: cell-based, human; design: IL-2 release, K562/OKT3 (No PD-L1), CD80-IgV Fc (effector), 1 nM / IL-2 release, K562/OKT3 (No PD-L1), CD80-IgV Fc (effector), 10 nM / IL-2 release, K562/OKT3 (No PD-L1), CD80-IgV Fc (effector), 100 nM / IL-2 release, K562/OKT3/PD-L1, CD80-IgV Fc (inert), 1 nM / IL-2 release, K562/OKT3/PD-L1, CD80-IgV Fc (inert), 10 nM / IL-2 release, K562/OKT3/PD-L1, CD80-IgV Fc (inert), 100 nM: unit not given here; conditions: 72 hr; for IL-2 release, K562/OKT3 (No PD-L1), CD80-IgV Fc (effector), 1 nM / IL-2 release, K562/OKT3 (No PD-L1), CD80-IgV Fc (effector), 10 nM / IL-2 release, K562/OKT3 (No PD-L1), CD80-IgV Fc (effector), 100 nM: Pan T cells + K562/OKT3 (no PD-L1), effector Fc format (controls as labelled)
Description: IFN-gamma, IL-2 and proliferation were determined after 72 hr. incubation.

allogeneic CD4+ T cells = assay: Mixed Lymphocyte Reaction (MLR), IFN-gamma; assay type: cell-based, human; conditions: Table E33; culture supernatant
Description: Soluble rCD80.Fc bioactivity was tested in a human Mixed Lymphocyte Reaction (MLR). Human primary dendritic cells (DC) were generated by culturing monocytes isolated from PBMC (BenTech Bio, USA) in vitro for 7 days with 500U/ml rIL-4 (R&D Systems, USA) and 250 U/ml rGM-CSF (R&D Systems, USA) in Ex-Vivo 15 media (Lonza, Switzerland). 10,000 matured DC and 100,000 purified allogeneic CD4+ T cells (BenTech Bio, USA) were co-cultured with variant CD80 Fc fusion proteins and controls in 96 well round bottom plates in 200 μl final volume of Ex-Vivo 15 media. On day 5, IFN-gamma secretion in culture supernatants was analyzed using the Human IFN-gamma Duoset ELISA kit (R&D Systems, USA). Optical density was measured by VMax ELISA Microplate Reader (Molecular Devices, USA) and quantitated against titrated rIFN-gamma standard included in the IFN-gamma Duo-set kit (R&D Systems, USA).

human pan T cells = assay: Anti-CD3 coimmobilization assay, IFN-gamma; assay type: cell-based; conditions: Table E33; culture supernatant, 3 days
Description: Costimulatory bioactivity of CD80 fusion variants was determined in anti-CD3 coimmobilization assays. 1 nM or 4 nM mouse anti-human CD3 (OKT3, Biolegends, USA) was diluted in PBS with 1 nM to 80 nM rCD80.Fc variant proteins. This mixture was added to tissue culture treated flat bottom 96-well plates (Corning, USA) overnight to facilitate adherence of the stimulatory proteins to the wells of the plate. The next day, unbound protein was washed off the plates and 100,000 purified human pan T cells (BenTech Bio, US) or human T cell clone BC3 (Astarte Biologics, USA) were added to each well in a final volume of 200 μl of Ex-Vivo 15 media (Lonza, Switzerland). Cells were cultured 3 days before harvesting culture supernatants and measuring human IFN-gamma levels with Duoset ELISA kit (R&D Systems, USA) as described above.

MC38 hPD-L1 tumor cells = assay: MC38 hPD-L1 tumor model in C57BL/6 mice; assay type: in vivo, mouse
Description: Mouse MC38 tumor cells were stably transfected with human PD-L1 (MC38 hPD-L1) and implanted subcutaneously into C57BU6 mice. […] Tumor volume was tracked over time.
70 female C57CL/6 mice, containing similar tumor volumes of approximately 50-51 mm^3, following implantation of MC38 hPD-L1 tumor cells, were staged and divided into 5 treatment groups containing 14 mice each. […] Tumor volumes were measured on days 7, 10, and 12. On day 13, 5 animals were sacrificed for analysis as described in the sections below. Tumor measurements resumed for the remaining 9 mice for each group on days 17, 20 and 27. On days 26, 28, and 31, the animals in Group 1 (Fc isotype control) received an intratumoral injection of 100 μg E35D/M47L CD80-IgV-Fc.
95 female C57BU6 mice were implanted with MC38 hPD-L1 tumor cells. The tumors were staged on Day 7, and 77 mice with similar tumor volumes of approximately 60 mm^3 were divided into 7 treatment groups containing 11 mice each.
On day 49, tumor-free mice, from Groups 3, 4, 6, and 7, and 2 naïve C57CL/6 mice were re-challenged with an additional injection of hPD-L1 MC38 cells. Tumor volumes were measured on days 56, 59, and 63. The results are depicted in FIG. 13. […] At day 59, 8/8 mice from Group 3, 1/2 mice from Group 4, 1/1 mouse from Group 6, and 2/2 mice from Group 7 were tumor-free, and by day 63, all mice in Group 3, Group 4, Group 6, and Group 7 were tumor-free.
75 animals were staged into 3 treatment groups 7 days after implantation with hPD-L1 MC38 tumor cells. […] Tumor volumes were measured every 3-4 days, from Day 11 until Day 35. 3 days after the 1st dose, 2nd dose and 3rd dose, 4 mice from each group were sacrificed for tumor and LN analyses, leaving 13 mice for tumor volume measurements throughout the study period.

[1] = tested on: primary human pan T cells; assay: Cytokine production following PD-L1-dependent costimulation; assay type: cell-based; conditions: mitomycin-c treated K562/OKT3/PDL1 aAPC; FIG. 6
[2] = tested on: huPD-L1 transduced MC38 tumor cells; assay: In vitro cytotoxicity to huPD-L1 transduced MC38 tumor cells; assay type: cell-based, mouse; conditions: 100 nM or 10 nM; 72 hours; human pan T cells 1:5; FIG. 17
Description: This Example describes the assessment of in vitro cytotoxicity of huPD-L1 transduced MC38 tumor cells. MC38 tumor cells, non-transduced or transduced with huPD-L1, were treated with Mitomycin-C and plated with human pan T cells labelled with CFSE at a 1:5 ratio. […] As a control, an exemplary anti-PD-1 antibody nivolumab or an Fc (inert) only control also were assessed. Cells were then harvested and stained with 7-AAD viability dye. After acquiring samples on a flow cytometer, the percentage of dead cells was calculated using Flowjo analysis by gating on 7-AAD+ cells in the CFSE− gate.

[3] = 3 injections of 100 μg on Days 8, 10 and 12
[4] = re-challenged on day 49 with hPD-L1 MC38 cells

WT CD80 ECD-Fc (effector)
IL-2 release, K562/OKT3 (No PD-L1), CD80-IgV Fc (effector), 1 nM (Pan T cells; 1 nM): 11434 | IL-2 release, K562/OKT3 (No PD-L1), CD80-IgV Fc (effector), 10 nM (Pan T cells; 10 nM): 20185 | IL-2 release, K562/OKT3 (No PD-L1), CD80-IgV Fc (effector), 100 nM (Pan T cells; 100 nM): 23118 | IL-2 release, K562/OKT3/PD-L1, CD80-IgV Fc (inert), 1 nM (Pan T cells; Pan T cells + K562/OKT3/PD-L1, inert Fc format (controls as labelled), 1 nM): 507 | IL-2 release, K562/OKT3/PD-L1, CD80-IgV Fc (inert), 10 nM (Pan T cells; Pan T cells + K562/OKT3/PD-L1, inert Fc format (controls as labelled), 10 nM): 3114 | IL-2 release, K562/OKT3/PD-L1, CD80-IgV Fc (inert), 100 nM (Pan T cells; Pan T cells + K562/OKT3/PD-L1, inert Fc format (controls as labelled), 100 nM): 8393

WT CD80 IgV-Fc (effector)
IL-2 release, K562/OKT3 (No PD-L1), CD80-IgV Fc (effector), 1 nM (Pan T cells; 1 nM): 7167 | IL-2 release, K562/OKT3 (No PD-L1), CD80-IgV Fc (effector), 10 nM (Pan T cells; 10 nM): 7123 | IL-2 release, K562/OKT3 (No PD-L1), CD80-IgV Fc (effector), 100 nM (Pan T cells; 100 nM): 6203

WTCD80
MLR IFN-gamma levels (allogeneic CD4+ T cells): 19211 pg/mL | Coimmobilization with anti-CD3 IFN-gamma (human pan T cells): 509 pg/mL

durvalumab [reference compound]
mice with no detectable tumors (tumor-free) upon completion of the study (MC38 hPD-L1 tumor cells; 100 μg on days 7, 9 and 11, 11 mice per group): 2 mice | tumor-free mice at day 35 (MC38 hPD-L1 tumor cells; [3]): 3/13 | tumor-free mice on Day 18 (MC38 hPD-L1 tumor cells; [3]): 3/13 | tumor-free mice after re-challenge, day 59 (MC38 hPD-L1 tumor cells; [4]): 2/2 | tumor-free mice after re-challenge, day 63 (MC38 hPD-L1 tumor cells; [4]): tumor-free | IL-2 secretion in culture supernatants [1]: IL-2 production was not observed

nivolumab [reference compound]
cytotoxicity (percentage of dead 7-AAD+ tumor cells) [2]: cytotoxic activity was not observed
